Data reported in PubChem BioAssay AID2060498 (Molecular Pharmacology Branch, DTP, NCI, 2025).

Test system: 171881-019-R-J1-PDC tumor spheroids, viability
Test: Anticancer human tumor 171881-019-R-J1-PDC patient-derived invasive breast carcinoma cell line growth inhibition [GQUAD]
Conditions: spheroids with HUVEC and MSC; for IC50: curve of first compound; for viability, T/C: stronger effect = lower value
Outline: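 Tumor cells were grown as complex spheroids with HUVEC endothelial cells and mesenchymal stem cells as stroma. G-quadruplex stabilizers were combined with targeted agents over half-log dilutions from near the clinical Cmax, or from 10 microM.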

[1] = second compound 0.0316 µM, first compound 0.0316 µM
[2] = second compound 0.0316 µM, first compound 0.1 µM
[3] = second compound 0.0316 µM, first compound 0.316 µM
[4] = second compound 0.0316 µM, first compound 1 µM
[5] = second compound 0.0316 µM, first compound 3.16 µM
[6] = second compound 0.0316 µM, first compound 10 µM
[7] = second compound 0.1 µM, first compound 0.0316 µM
[8] = second compound 0.1 µM, first compound 0.1 µM
[9] = second compound 0.1 µM, first compound 0.316 µM
[10] = second compound 0.1 µM, first compound 1 µM
[11] = second compound 0.1 µM, first compound 3.16 µM
[12] = second compound 0.1 µM, first compound 10 µM
[13] = second compound 0.316 µM, first compound 0.0316 µM
[14] = second compound 0.316 µM, first compound 0.1 µM
[15] = second compound 0.316 µM, first compound 0.316 µM
[16] = second compound 0.316 µM, first compound 1 µM
[17] = second compound 0.316 µM, first compound 3.16 µM
[18] = second compound 0.316 µM, first compound 10 µM
[19] = second compound 1 µM, first compound 0.0316 µM
[20] = second compound 1 µM, first compound 0.1 µM
[21] = second compound 1 µM, first compound 0.316 µM
[22] = second compound 1 µM, first compound 1 µM
[23] = second compound 1 µM, first compound 3.16 µM
[24] = second compound 1 µM, first compound 10 µM
[25] = second compound 3.16 µM, first compound 0.0316 µM
[26] = second compound 3.16 µM, first compound 0.1 µM
[27] = second compound 3.16 µM, first compound 0.316 µM
[28] = second compound 3.16 µM, first compound 1 µM
[29] = second compound 3.16 µM, first compound 3.16 µM
[30] = second compound 3.16 µM, first compound 10 µM
[31] = second compound 10 µM, first compound 0.0316 µM
[32] = second compound 10 µM, first compound 0.1 µM
[33] = second compound 10 µM, first compound 0.316 µM
[34] = second compound 10 µM, first compound 1 µM
[35] = second compound 10 µM, first compound 3.16 µM
[36] = second compound 10 µM, first compound 10 µM
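Further: spheroids exposed to compounds for 7 days.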
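Wherever viability, T/C is given: 100% = DMSO vehicle control viability.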

C=CC(=O)N1CCN(c2nc(=O)n(-c3c(C)ccnc3C(C)C)c3nc(-c4c(O)cccc4F)c(F)cc23)C(C)C1 (stereo unspecified) + Cc1cnc(CNC(=O)c2c(=O)c3ccc(N4CCCN(C)CC4)nc3n3c2sc2ccccc23)cn1
IC50 (second compound 0.0316 µM): > 10 µM | IC50 (second compound 0.1 µM): > 10 µM | IC50 (second compound 0.316 µM): > 10 µM | IC50 (second compound 1 µM): > 10 µM | IC50 (second compound 3.16 µM): > 10 µM | IC50 (second compound 10 µM): > 10 µM | viability, T/C [1]: 113% | viability, T/C [2]: 92.9% | viability, T/C [3]: 100% | viability, T/C [4]: 103% | viability, T/C [5]: 87.2% | viability, T/C [6]: 50.9% | viability, T/C [7]: 88.3% | viability, T/C [8]: 90.8% | viability, T/C [9]: 78.4% | viability, T/C [10]: 93.2% | viability, T/C [11]: 81.6% | viability, T/C [12]: 55.8% | viability, T/C [13]: 79.2% | viability, T/C [14]: 80.4% | viability, T/C [15]: 80.9% | viability, T/C [16]: 82.2% | viability, T/C [17]: 82.6% | viability, T/C [18]: 63.4% | viability, T/C [19]: 73.4% | viability, T/C [20]: 63.2% | viability, T/C [21]: 77.7% | viability, T/C [22]: 78.1% | viability, T/C [23]: 81.8% | viability, T/C [24]: 66.5% | viability, T/C [25]: 70.6% | viability, T/C [26]: 67.5% | viability, T/C [27]: 73.2% | viability, T/C [28]: 66.3% | viability, T/C [29]: 83.3% | viability, T/C [30]: 68.9% | viability, T/C [31]: 61.2% | viability, T/C [32]: 65.1% | viability, T/C [33]: 65.7% | viability, T/C [34]: 74.5% | viability, T/C [35]: 81.7% | viability, T/C [36]: 68%

CCc1c2c(nc3ccc(O)cc13)-c1cc3c(c(=O)n1C2)COC(=O)[C@]3(O)CC + Cc1cnc(CNC(=O)c2c(=O)c3ccc(N4CCCN(C)CC4)nc3n3c2sc2ccccc23)cn1
IC50 (second compound 0.0316 µM): 0.00209 µM | IC50 (second compound 0.1 µM): 0.00331 µM | IC50 (second compound 0.316 µM): 0.00581 µM | IC50 (second compound 1 µM): 0.00853 µM | IC50 (second compound 3.16 µM): 0.00726 µM | IC50 (second compound 10 µM): 0.0059 µM | viability, T/C (second compound 0.0316 µM, first compound 0.000999 µM): 62.6% | viability, T/C (second compound 0.0316 µM, first compound 0.00316 µM): 39.1% | viability, T/C (second compound 0.0316 µM, first compound 0.00999 µM): 36.5% | viability, T/C [1]: 30.9% | viability, T/C (second compound 0.0316 µM, first compound 0.0999 µM): 26.2% | viability, T/C [3]: 19.9% | viability, T/C (second compound 0.1 µM, first compound 0.000999 µM): 57.7% | viability, T/C (second compound 0.1 µM, first compound 0.00316 µM): 49.3% | viability, T/C (second compound 0.1 µM, first compound 0.00999 µM): 43.5% | viability, T/C [7]: 35.3% | viability, T/C (second compound 0.1 µM, first compound 0.0999 µM): 26.4% | viability, T/C [9]: 20.2% | viability, T/C (second compound 0.316 µM, first compound 0.000999 µM): 61.6% | viability, T/C (second compound 0.316 µM, first compound 0.00316 µM): 55.5% | viability, T/C (second compound 0.316 µM, first compound 0.00999 µM): 46.1% | viability, T/C [13]: 35.5% | viability, T/C (second compound 0.316 µM, first compound 0.0999 µM): 27.7% | viability, T/C [15]: 18.8% | viability, T/C (second compound 1 µM, first compound 0.000999 µM): 60.3% | viability, T/C (second compound 1 µM, first compound 0.00316 µM): 53.2% | viability, T/C (second compound 1 µM, first compound 0.00999 µM): 51.6% | viability, T/C [19]: 34.3% | viability, T/C (second compound 1 µM, first compound 0.0999 µM): 24% | viability, T/C [21]: 15.8% | viability, T/C (second compound 3.16 µM, first compound 0.000999 µM): 60.8% | viability, T/C (second compound 3.16 µM, first compound 0.00316 µM): 50.1% | viability, T/C (second compound 3.16 µM, first compound 0.00999 µM): 52.9% | viability, T/C [25]: 35.4% | viability, T/C (second compound 3.16 µM, first compound 0.0999 µM): 26% | viability, T/C [27]: 13.8% | viability, T/C (second compound 10 µM, first compound 0.000999 µM): 52.3% | viability, T/C (second compound 10 µM, first compound 0.00316 µM): 55.1% | viability, T/C (second compound 10 µM, first compound 0.00999 µM): 47.4% | viability, T/C [31]: 37.3% | viability, T/C (second compound 10 µM, first compound 0.0999 µM): 24.8% | viability, T/C [33]: 12.6%

Cc1cccc(N(C)C(=O)C2C(O)CCN2c2nc(C)cc(C(F)(F)F)c2C#N)c1 (stereo unspecified) + Cc1cnc(CNC(=O)c2c(=O)c3ccc(N4CCCN(C)CC4)nc3n3c2sc2ccccc23)cn1
IC50 (second compound 0.0316 µM): > 10 µM | IC50 (second compound 0.1 µM): > 10 µM | IC50 (second compound 0.316 µM): > 10 µM | IC50 (second compound 1 µM): > 10 µM | IC50 (second compound 3.16 µM): > 10 µM | IC50 (second compound 10 µM): > 10 µM | viability, T/C [1]: 105% | viability, T/C [2]: 87.2% | viability, T/C [3]: 90.4% | viability, T/C [4]: 92.2% | viability, T/C [5]: 88.5% | viability, T/C [6]: 79.7% | viability, T/C [7]: 86.9% | viability, T/C [8]: 88% | viability, T/C [9]: 77.6% | viability, T/C [10]: 76.2% | viability, T/C [11]: 80.6% | viability, T/C [12]: 79.5% | viability, T/C [13]: 73.5% | viability, T/C [14]: 73.1% | viability, T/C [15]: 75.8% | viability, T/C [16]: 69.7% | viability, T/C [17]: 77.7% | viability, T/C [18]: 69% | viability, T/C [19]: 67.5% | viability, T/C [20]: 66.5% | viability, T/C [21]: 71.1% | viability, T/C [22]: 66.4% | viability, T/C [23]: 74.2% | viability, T/C [24]: 70.3% | viability, T/C [25]: 65.3% | viability, T/C [26]: 60.9% | viability, T/C [27]: 63.1% | viability, T/C [28]: 55.9% | viability, T/C [29]: 68.8% | viability, T/C [30]: 67.8% | viability, T/C [31]: 60.9% | viability, T/C [32]: 66.7% | viability, T/C [33]: 61.3% | viability, T/C [34]: 66.2% | viability, T/C [35]: 67.6% | viability, T/C [36]: 66.8%
